Assays:
Assay type in all cases: in vivo
barnyard grass (Ec) = test: Test Example 2: herbicidal effects by upland soil treatment; design: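 0-5 growth inhibition grade; 5 = over 90%; 4 = 70-90%; 3 = 50-70%; 2 = 30-50%; 1 = 10-30%; 0 = under 10%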; settings: dose 100 g active ingredient per 10 ares, examined on the 21st day after treatment
Outline: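 Pre-emergence test: barnyard grass and green foxtail sown in upland soil, then soil surface sprayed with wettable-powder formulation at 100 g active ingredient per 10 ares (100 l per 10 ares). Grown in greenhouse; herbicidal effect scored on a rating scale 21 days after treatment.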

rice (Or) = test: Test Example 4: selectivity for a crop plant by flooded paddy field treatment; design: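 0-5 phytotoxicity grade; 5 = over 90%; 4 = 70-90%; 3 = 50-70%; 2 = 30-50%; 1 = 10-30%; 0 = under 10%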; settings: rice transplanted at second leaf stage, dose 25 gai/10a, 21st day after treatment, index per Table 44
Experimental: (§1) In a 100 cm^2 plastic pot, a paddy field soil was filled and paddled. Then, seeds of barnyard grass (Eo) and monochoria (Mo) were sown, and rice (Or) of second leaf stage was transplanted, and water was introduced to a depth of 3 cm. Next day, a wettable powder prepared in accordance with Formulation Example 1 was diluted with water and dropwise applied to the water surface. The dose was 25 g of the active ingredient per 10 ares. Thereafter, cultivation was carried out in a green house, and on the 21st day after the treatment, the herbicidal effects were examined in accordance with the standards of Table 44.

monochoria (Mo) [1] = test: as above; design: scale not given here; settings: monochoria, dose 25 gai/10a, 21st day after treatment, index per Table 44
Experimental: as §1

barnyard grass (Eo) [2] = test: as above; design: scale not given here; settings: barnyard grass, dose 25 gai/10a, 21st day after treatment, index per Table 44
Experimental: as §1

barnyard grass (Eo) [3] = test: Test Example 1: herbicidal effects by flooded paddy field treatment; design: herbicidal effects, Eo (barnyard grass):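 0-5 growth inhibition grade; 5 = over 90%; 4 = 70-90%; 3 = 50-70%; 2 = 30-50%; 1 = 10-30%; 0 = under 10%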; settings: dose 100 g active ingredient per 10 ares, examined on the 21st day after treatment, standards of Table 44
Outline: (§2)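 Seeds were sown in puddled paddy soil in pots and flooded to 3 cm. The next day a water-diluted wettable powder was dripped onto the water surface at 100 g active ingredient per 10 ares. Plants grew in a greenhouse, and herbicidal effect was scored on a rating scale 21 days after treatment.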

monochoria (Mo) [4] = test: as above; design: herbicidal effects, Mo (monochoria):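 0-5 growth inhibition grade; 5 = over 90%; 4 = 70-90%; 3 = 50-70%; 2 = 30-50%; 1 = 10-30%; 0 = under 10%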; settings: dose 100 g active ingredient per 10 ares, examined on the 21st day after treatment, standards of Table 44
Outline: as §2

| Structure (SMILES) | Ec (herbicidal effects, index) (barnyard grass (Ec)) | Or (herbicidal effect index on crop) (rice (Or)) | Mo (herbicidal effect index) (monochoria (Mo) [1]) | Eo (herbicidal effect index) (barnyard grass (Eo) [2]) | herbicidal effects, Eo (barnyard grass) (barnyard grass (Eo) [3]) | herbicidal effects, Mo (monochoria) (monochoria (Mo) [4]) |
| --- | --- | --- | --- | --- | --- | --- |
| CN(C(=O)Cc1ccc(C(F)(F)F)cc1)C(c1ccccc1)c1cncnc1C(F)(F)F (racemic) [1-306] | 5 | 1 | 5 | 5 | 5 | 5 |
| CCN(C(=O)Cc1ccc(Cl)cc1F)C(c1cncnc1C(F)(F)F)C(C)C (racemic) [1-321] | 5 | 1 | 5 | 5 | 5 | 5 |
| CC(C)C(c1cncnc1C(F)(F)F)N(C)C(=O)C(C)(C)c1ccc(Cl)cc1 (racemic) [1-329] | 5 | 1 | 5 | 5 | 5 | 5 |
| CC(C)C(c1cncnc1C(F)(F)F)N(C)C(=O)Cc1cc(F)c(F)c(F)c1 (racemic) [1-418] | 5 | 1 | 5 | 5 | 5 | 5 |
| CCN(C(=O)N(C)C(c1cncnc1C(F)(F)F)C(C)C)c1ccccc1 (racemic) [1-425] | 5 | 1 | 5 | 5 | 5 | 5 |
| CCC(c1cncnc1C(C)C)N(C)C(=O)Cc1ccc(C)cc1 (racemic) [1-439] | 5 | 1 | 5 | 5 | 5 | 5 |
| Cc1ccc(CC(=O)N(C)C(c2ccsc2)c2cncnc2C(F)(F)F)cc1 (racemic) [1-443] | 5 | 1 | 5 | 5 | 5 | 5 |
| CC(C)C(c1cncnc1C(F)(F)F)N(C)C(=O)Cc1cc(F)cc(F)c1F (racemic) [1-444] | 5 | 1 | 5 | 5 | 5 | 5 |
| CCCc1ncncc1C(C(C)C)N(C)C(=O)Cc1ccc(C)cc1 (racemic) [1-448] | 5 | 1 | 5 | 5 | 5 | 5 |
| CON=CC(c1cncnc1C(C)C)N(C)C(=O)Cc1ccc(C)cc1 (racemic) [1-465] | 5 | 0 | 5 | 5 | 5 | 5 |
| Cc1ccc(CC(=O)N(CC#N)C(c2cncnc2C(F)(F)F)C(C)C)cc1 (racemic) [1-483] | 5 | 1 | 5 | 5 | 5 | 5 |
| COc1ccc(C(c2cncnc2C(F)(F)F)N(C)C(=O)Cc2ccc(F)cc2)cc1 (racemic) [1-485] | 5 | 1 | 5 | 5 | 5 | 5 |
| CCCc1ncncc1C(CCC)N(C)C(=O)Cc1ccc(C)cc1 (racemic) [1-495] | 5 | 0 | 5 | 5 | 5 | 5 |
| CON=Cc1ncncc1C(C(C)C)N(C)C(=O)Cc1ccc(Cl)cc1 (racemic) [1-498] | 5 | 0 | 5 | 5 | 5 | 5 |
| COC(C)(OC)C(c1cncnc1C(C)C)N(C)C(=O)Cc1ccc(Cl)cc1 (racemic) [1-511] | 4 | 0 | 5 | 5 | 5 | 5 |
| C=CCN(C(=O)Cc1ccc(Cl)cc1)C(c1cncnc1C(F)(F)F)C(C)C (racemic) [1-520] | 5 | 1 | 5 | 5 | 5 | 5 |
| C=CCN(C(=O)Cc1ccc(C)cc1)C(c1cncnc1C(F)(F)F)C(C)C (racemic) [1-521] | 5 | 1 | 5 | 5 | 5 | 5 |
| C#CCN(C(=O)N(C)C(c1cncnc1C(F)(F)F)C(C)C)c1ccc(F)cc1 (racemic) [1-533] | 5 | 1 | 5 | 5 | 5 | 5 |
| CN(C(=O)Cc1ccc(Cl)cc1)C(c1ccccc1F)c1cncnc1C(F)(F)F (racemic) [1-548] | 5 | 1 | 5 | 5 | 5 | 5 |
| Cc1ccc(CC(=O)N(C)C(c2ccccc2F)c2cncnc2C(F)(F)F)cc1 (racemic) [1-549] | 5 | 0 | 5 | 5 | 5 | 5 |
| Cc1ccccc1C(c1cncnc1C(F)(F)F)N(C)C(=O)Cc1ccc(F)cc1 (racemic) [1-551] | 5 | 0 | 5 | 5 | 5 | 5 |
| Cc1ccc(CC(=O)N(C)C(c2ccccc2C)c2cncnc2C(F)(F)F)cc1 (racemic) [1-553] | 5 | 1 | 5 | 5 | 5 | 5 |

Reference: patent publication US6806230B1, “Pyrimidine derivatives and herbicides containing them” (Kumiai Chemical Industry Co., Ltd., priority 1999, dated 2004)
